Measured values from the NIST ThermoML archive (doi:10.1016/j.jct.2013.04.021).

Test: xn = mol fraction of the nth substance listed
Conditions: 101 kPa, Liquid; for mass density: Vibrating tube method; for speed of sound: fixed-path interferometer; for viscosity: Capillary tube (Ostwald / Ubbelohde) method

CCCCOCCO [2-butoxyethan-1-ol] + CCCCCCO
Conditions	mass density [kg/m3]	speed of sound [m/s]	viscosity [mPa·s]
293.15 K, x1 = 0.0535	823.637	1320	–
293.15 K, x1 = 0.1046	827.82	1319.4	–
293.15 K, x1 = 0.1546	831.917	1319.1	–
293.15 K, x1 = 0.2054	836.077	1318.8	–
293.15 K, x1 = 0.253	839.982	1318.5	–
293.15 K, x1 = 0.2999	843.819	1318.3	–
293.15 K, x1 = 0.4044	852.353	1318.3	–
293.15 K, x1 = 0.5039	860.457	1318.5	–
293.15 K, x1 = 0.5932	867.724	1318.9	–
293.15 K, x1 = 0.7003	876.414	1319.6	–
293.15 K, x1 = 0.8019	884.63	1320.7	–
293.15 K, x1 = 0.8545	888.867	1321.4	–
293.15 K, x1 = 0.8987	892.418	1322	–
293.15 K, x1 = 0.9522	896.698	1322.8	–
298.15 K, x1 = 0.0535	820.01	1303.1	4.359
298.15 K, x1 = 0.1046	824.093	1302.6	4.133
298.15 K, x1 = 0.1546	828.161	1302.2	4.004
298.15 K, x1 = 0.2054	832.312	1301.8	3.821
298.15 K, x1 = 0.253	836.221	1301.6	3.691
298.15 K, x1 = 0.2999	840.066	1301.4	3.616
298.15 K, x1 = 0.4044	848.606	1301.3	3.464
298.15 K, x1 = 0.5039	856.686	1301.5	3.305
298.15 K, x1 = 0.5932	863.892	1301.8	3.139
298.15 K, x1 = 0.7003	872.492	1302.6	3.046
298.15 K, x1 = 0.8019	880.623	1303.6	2.996
298.15 K, x1 = 0.8545	884.811	1304.3	2.908
298.15 K, x1 = 0.8987	888.334	1305	2.897
298.15 K, x1 = 0.9522	892.569	1305.7	2.871
303.15 K, x1 = 0.0535	816.368	1286.3	3.706
303.15 K, x1 = 0.1046	820.503	1285.8	3.56
303.15 K, x1 = 0.1546	824.557	1285.5	3.421
303.15 K, x1 = 0.2054	828.676	1285.2	3.3
303.15 K, x1 = 0.253	832.536	1284.9	3.19
303.15 K, x1 = 0.2999	836.324	1284.8	3.1
303.15 K, x1 = 0.4044	844.739	1284.7	2.916
303.15 K, x1 = 0.5039	852.713	1284.8	2.781
303.15 K, x1 = 0.5932	859.852	1285.2	2.694
303.15 K, x1 = 0.7003	868.399	1285.9	2.631
303.15 K, x1 = 0.8019	876.485	1286.8	2.583
303.15 K, x1 = 0.8545	880.662	1287.4	2.573
303.15 K, x1 = 0.8987	884.162	1288	2.595
303.15 K, x1 = 0.9522	888.376	1288.7	2.613
308.15 K, x1 = 0.0535	812.694	1269.6	3.243
308.15 K, x1 = 0.1046	816.794	1269.2	3.12
308.15 K, x1 = 0.1546	820.816	1268.8	3.006
308.15 K, x1 = 0.2054	824.902	1268.6	2.896
308.15 K, x1 = 0.253	828.737	1268.3	2.807
308.15 K, x1 = 0.2999	832.499	1268.2	2.736
308.15 K, x1 = 0.4044	840.855	1268.1	2.597
308.15 K, x1 = 0.5039	848.772	1268.2	2.499
308.15 K, x1 = 0.5932	855.859	1268.6	2.43
308.15 K, x1 = 0.7003	864.345	1269.2	2.367
308.15 K, x1 = 0.8019	872.393	1270.1	2.311
308.15 K, x1 = 0.8545	876.541	1270.6	2.284
308.15 K, x1 = 0.8987	880.024	1271.1	2.275
308.15 K, x1 = 0.9522	884.199	1271.8	2.242
313.15 K, x1 = 0.0535	809.018	1253	–
313.15 K, x1 = 0.1046	813.092	1252.7	–
313.15 K, x1 = 0.1546	817.077	1252.4	–
313.15 K, x1 = 0.2054	821.127	1252.2	–
313.15 K, x1 = 0.253	824.921	1252	–
313.15 K, x1 = 0.2999	828.653	1251.9	–
313.15 K, x1 = 0.4044	836.942	1251.8	–
313.15 K, x1 = 0.5039	844.805	1251.9	–
313.15 K, x1 = 0.5932	851.852	1252.2	–
313.15 K, x1 = 0.7003	860.279	1252.7	–
313.15 K, x1 = 0.8019	868.245	1253.4	–
313.15 K, x1 = 0.8545	872.354	1253.9	–
313.15 K, x1 = 0.8987	875.803	1254.3	–
313.15 K, x1 = 0.9522	879.956	1254.9	–
